Data taken from patent US11505574B2, “Modulation of P53 for the treatment of cancer” (THE REGENTS OF THE UNIVERSITY OF CALIFORNIA, priority 2016, dated 2022).
“Also recorded” adds a separate entry of the source.

Assays:
p53 [1] = assay: Western blot for p53 in MCF7 cells treated with oligonucleotides; assay type: cell-based, human; conditions: MCF7 cells; oligonucleotide 50 nM; 24 hours (FIG. 2)
RKO cells = assay: RKO cell colony formation assay (oligonucleotides); assay type: cell-based; conditions: 5 μM oligonucleotide for 24 hours; versus M3 control (FIG. 30)
Excerpt: Another strategy is to use oligonucleotides to block the interaction between RBM38 and the 3′ untranslated region (UTR) of p53 in order to modulate p53 translation (FIG. 26). To this end, a region of the p53 3′ UTR where RBM38 interacts (FIG. 27) was identified (SEQ ID NO:15) and several oligonucleotides having complementarity to this sequence (e.g., SEQ ID NOS:16-21) were designed.

p53 [2] = assay: Western blot for p53 and downstream targets in MCF7 cells treated with peptides; assay type: cell-based, human; conditions: for p53 expression (Western blot) / protein expression of p53 and downstream targets p21 and MDM2 (Western blot) / p53 and p21 expression after low-dose doxorubicin treatment (Western blot) / doxorubicin-mediated p53 and p21 upregulation (Western blot) / expression of p53 and downstream targets with low-dose doxorubicin (Western blot) / expression of p53 and downstream targets p21 and MDM2 (Western blot): MCF7 cells; for p53 expression (Western blot): 300 nM peptide with 6 μM PEP1, 24 hours (FIG. 31B); for protein expression of p53 and downstream targets p21 and MDM2 (Western blot): 300 nM peptide with 6 μg PEP1 (20:1 PEP1 to peptide), 18 hours (FIG. 1A); for p53 and p21 expression after low-dose doxorubicin treatment (Western blot): 375 nM peptide with 7.5 μM PEP1, 6.25 ng/mL doxorubicin 18 hours (FIG. 34H); for doxorubicin-mediated p53 and p21 upregulation (Western blot): 375 nM peptide with (20:1) plus 6.25 ng/mL doxorubicin, 18 hours (FIG. 1C); for expression of p53 and downstream targets with low-dose doxorubicin (Western blot): complexes of CPPs and peptide plus doxorubicin 6.25 ng/mL (FIG. 19B); for expression of p53 and downstream targets p21 and MDM2 (Western blot): complexes with PEP1 (FIG. 13B)
p53 [3] = assay: Western blot for p53 and downstream targets in RKO cells treated with peptides; assay type: cell-based, human; conditions: RKO cells; for p53 expression (Western blot): 300 nM peptide with 6 μM PEP1, 24 hours (FIG. 31A); for p53 and p21 expression after low-dose doxorubicin treatment (Western blot) / p53 protein expression compared to Pep8 (Western blot): 375 nM peptide with 7.5 μM PEP1; for p53 and p21 expression after low-dose doxorubicin treatment (Western blot): 6.25 ng/mL doxorubicin 18 hours (FIG. 34G); for expression of p53 and downstream targets with low-dose doxorubicin (Western blot): complexes of CPPs and peptide plus doxorubicin 6.25 ng/mL (FIG. 19A); for expression of p53 (Western blot): peptide complexed with PEP1 (FIG. 13A); for p53 protein expression compared to Pep8 (Western blot): 18 hours (FIG. 37A)
MCF7 cells = assay: MCF7 cell colony formation assay (peptides); assay type: cell-based, human; conditions: for MCF7 cell colony formation: 375 nM peptide with 7.5 μg PEP1 (20:1) (FIG. 1B); for inhibition of colony formation by low-dose doxorubicin: MCF7 cells, 375 nM peptide with 7.5 μg PEP1 (20:1) plus 3.125 ng/mL doxorubicin (FIG. 1D); for colony formation in MCF7 cells: complexes of peptide and PEP1 (FIG. 18)
Experimental: In order to test the effect of the RBM38 and eIF4E peptides on cancer cell colony formation, MCF7 cells were seeded in 6-well plates at a density of 1×10^3 cells per well. The following day, cells were treated with peptides. In order to form stable complexes with PEP1, 100 μl of serum-free DMEM was added to individual Eppendorf tubes. Control (SEQ ID NO:11), RBM38, and eIF4E peptides were added at a concentration of 375 nM and then 7.5 μg of PEP1 was added to each peptide (20:1). The complexes were incubated for 20 minutes at room temperature and then added dropwise to cells. Cell media was changed every three days until colonies were visible. The cells were fixed and then stained with crystal violet.
In order to test the effect of a combination treatment comprising peptides of the present invention and a chemotherapeutic agent on cancer cell colony formation, MCF7 cells were seeded in 6-well plates at a density of 1×10^3 cells per well. The following day, cells were treated with peptides. In order to form stable complexes with PEP1, 100 μL of serum-free DMEM was added to individual Eppendorf tubes. Control, RBM38, eIF4E, and peptide-8 peptides were added at a concentration of 375 nM and then 7.5 μg of PEP1 was added to each peptide (20:1). The complexes were incubated for 20 minutes at room temperature and then added dropwise to cells. 20 minutes after addition of peptide complexes, 3.125 ng/mL doxorubicin was added to the cells. Cell media was changed every three days until colonies were visible. The cells were fixed and then stained with crystal violet.
For the experiments shown in FIG. 34C, MCF7 cells were seeded on a 6-well plate at a seed density of 1×10^3 cells per well. The following day the cells were treated with 5 μM Pen-Ctrl or 5 μM Pen-Pep23. The following day, 6.25 ng/mL doxorubicin was added to the cells for 48 hours. Subsequently, the cell media was changed every 3 days until colonies were visible. The cells were fixed and stained with crystal violet.

[4] = system: tumor cell colony formation; assay: Tumor cell colony formation assay, cell line not stated (FIGS. 13C, 20D); assay type: cell-based; conditions: complexes with PEP1 (FIG. 13C)
U20S = U20S cell colony formation assay (FIG. 18); assay type: cell-based, human; conditions: complexes of peptide and PEP1 (FIG. 18)
[5] = system: MIA-PaCa-2 pancreatic cancer cells; assay: MIA-PaCa-2 cell colony formation assay (peptides); assay type: cell-based, human; conditions: complexes of peptide and PEP1 (FIG. 18)
Excerpt: […] […] After colonies formed they were fixed (i.e., using 7:1 MeOH:glacial acetic acid) and stained with crystal violet.

AAAAAAAAAAAAAAAAAA (listed as DNA, chemistry not given here) [15A]
level of p53 (Western blot) (p53 [1]): level of p53 was increased | RKO tumor cell colony formation (RKO cells): inhibited RKO tumor cell colony formation after 24 hours more than the M3 control oligonucleotide did

AAAAAAGAAAAAAAA (chemistry not given here) [14A/G]
level of p53 (Western blot) (p53 [1]): level of p53 was increased | RKO tumor cell colony formation (RKO cells): inhibited RKO tumor cell colony formation after 24 hours more than the M3 control oligonucleotide did

AAAGAAAAAAGAAAA (listed as DNA, chemistry not given here) [18T-AS-15]
level of p53 (Western blot) (p53 [1]): level of p53 was increased

AAAGAAAAAAGAAAAAAAA (listed as DNA, chemistry not given here) [18T-AS-19]
level of p53 (Western blot) (p53 [1]): level of p53 was increased

AAAGAAAAAAGAAAAAAAAAAAAAAAAAA (listed as DNA, chemistry not given here) [18T-AS-29]
level of p53 (Western blot) (p53 [1]): level of p53 was increased

AAAGAAAAAAGAAAAAAAAAAAAAAAAAAGAAAAAGAA (listed as DNA, chemistry not given here) [18T-AS]
level of p53 (Western blot) (p53 [1]): level of p53 was increased

IGYQSHADTATKSGSTTKNRFVV [eIF4E]
p53 expression (Western blot) (p53 [2]): able to increase p53 expression | protein expression of p53 and downstream targets p21 and MDM2 (Western blot) (p53 [2]): increased protein expression of p53 and the downstream targets p21 and mouse double minute 2 homolog (MDM2); also recorded: increasing p53 protein levels; also recorded: induced p53 and downstream targets p21 and MDM2 | p53 and p21 expression after low-dose doxorubicin treatment (Western blot) (p53 [2]): further increased p53 and p21 expression | doxorubicin-mediated p53 and p21 upregulation (Western blot) (p53 [2]): enhanced the effect of doxorubicin-mediated p53 and p21 upregulation; also recorded: able to enhance the induction of p53 and p21 | expression of p53 and downstream targets with low-dose doxorubicin (Western blot) (p53 [2]): increased the expression of p53 and downstream targets | expression of p53 and downstream targets p21 and MDM2 (Western blot) (p53 [2]): expression of p53 and downstream targets p21 and MDM2 was increased | p53 expression (Western blot) (p53 [3]): able to increase p53 expression | p53 and p21 expression after low-dose doxorubicin treatment (Western blot) (p53 [3]): further increased p53 and p21 expression | expression of p53 and downstream targets with low-dose doxorubicin (Western blot) (p53 [3]): increased the expression of p53 and downstream targets | expression of p53 (Western blot) (p53 [3]): expression of p53 was increased relative to controls | MCF7 cell colony formation (MCF7 cells): able to inhibit MCF7 cell colony formation; also recorded: able to suppress colony formation of MCF7 breast cancer cells; also recorded: decreased colony formation | inhibition of colony formation by low-dose doxorubicin (MCF7 cells): enhanced the inhibition of colony formation by low-dose doxorubicin; also recorded: led to decreased colony formation | colony formation in MCF7 cells (MCF7 cells): inhibited colony formation | tumor cell colony formation [4]: successful at inhibiting tumor cell colony formation | colony formation in U20S cells (U20S): inhibited colony formation | colony formation in MIA-PaCa-2 pancreatic cancer cells [5]: inhibited colony formation

QYPPATYDQYPYAASPATAASFVGYSYPAAVPQALSAAAP [RBM38]
p53 expression (Western blot) (p53 [2]): able to increase p53 expression | protein expression of p53 and downstream targets p21 and MDM2 (Western blot) (p53 [2]): increased protein expression of p53 and the downstream targets p21 and mouse double minute 2 homolog (MDM2); also recorded: increasing p53 protein levels; also recorded: induced p53 and downstream targets p21 and MDM2 | p53 and p21 expression after low-dose doxorubicin treatment (Western blot) (p53 [2]): further increased p53 and p21 expression | doxorubicin-mediated p53 and p21 upregulation (Western blot) (p53 [2]): enhanced the effect of doxorubicin-mediated p53 and p21 upregulation; also recorded: able to enhance the induction of p53 and p21 | expression of p53 and downstream targets with low-dose doxorubicin (Western blot) (p53 [2]): increased the expression of p53 and downstream targets | expression of p53 and downstream targets p21 and MDM2 (Western blot) (p53 [2]): expression of p53 and downstream targets p21 and MDM2 was increased | p53 expression (Western blot) (p53 [3]): able to increase p53 expression | p53 and p21 expression after low-dose doxorubicin treatment (Western blot) (p53 [3]): further increased p53 and p21 expression | expression of p53 and downstream targets with low-dose doxorubicin (Western blot) (p53 [3]): increased the expression of p53 and downstream targets | expression of p53 (Western blot) (p53 [3]): expression of p53 was increased relative to controls | MCF7 cell colony formation (MCF7 cells): able to inhibit MCF7 cell colony formation; also recorded: able to suppress colony formation of MCF7 breast cancer cells; also recorded: decreased colony formation | inhibition of colony formation by low-dose doxorubicin (MCF7 cells): enhanced the inhibition of colony formation by low-dose doxorubicin | tumor cell colony formation [4]: successful at inhibiting tumor cell colony formation

YPYAAKPA [Pep8-SK, Pep8 mutant]
p53 protein expression compared to Pep8 (Western blot) (p53 [3]): stronger ability to induce p53 protein expression compared to Pep8

YPYAARPA [Pep8-SR, Pep8 mutant]
p53 protein expression compared to Pep8 (Western blot) (p53 [3]): stronger ability to induce p53 protein expression compared to Pep8

YPYAASPA [peptide-8]
induction of p53 (Western blot) (p53 [2]; MCF7 cells 375 nM, 50 nM or 150 nM, RKO cells 150 nM (FIG. 16)): stronger induction of p53 than the longer RBM38 and eIF4E peptides; also recorded: increases p53 expression | p53 and p21 expression after low-dose doxorubicin treatment (Western blot) (p53 [2]): further increased p53 and p21 expression | doxorubicin-mediated p53 and p21 upregulation (Western blot) (p53 [2]): enhanced the effect of doxorubicin-mediated p53 and p21 upregulation; also recorded: able to enhance the induction of p53 and p21 | expression of p53 and downstream targets with low-dose doxorubicin (Western blot) (p53 [2]): increased the expression of p53 and downstream targets | p53 protein levels (Western blot) (p53 [3]; 50 nM peptide with 1 μM PEP1, 18 hours (FIG. 32A)): could induce p53 protein levels | p53 and p21 expression after low-dose doxorubicin treatment (Western blot) (p53 [3]): further increased p53 and p21 expression | expression of p53 and downstream targets with low-dose doxorubicin (Western blot) (p53 [3]): increased the expression of p53 and downstream targets | inhibition of colony formation by low-dose doxorubicin (MCF7 cells): enhanced the inhibition of colony formation by low-dose doxorubicin; also recorded: led to decreased colony formation | colony formation in MCF7 cells (MCF7 cells): inhibited colony formation | colony formation in U20S cells (U20S): inhibited colony formation | colony formation in MIA-PaCa-2 pancreatic cancer cells [5]: inhibited colony formation
